# Measured values published in patent US9572830B2, “Uridine effects on dopamine release” (MASSACHUSETTS INSTITUTE OF TECHNOLOGY, priority 2004, dated 2017).
# What was measured:
# [1] = system: neurotransmitter release in right corpus striatum; test: Microdialysis of right corpus striatum of UMP-fed rats before, during and after potassium depolarization; assay type: in vivo, rat; conditions: striatal microdialysate
# Experimental: (§1) Retired breeder rats consumed a diet containing normal chow (Harlan Tech Lad, Madison, Wis.) supplemented with or without uridine 5′-monophosphate (UMP) (2.5%, w/w)—at a final concentration of 500 mg/kg/day, for a period of six weeks. Microdialysis was performed with cannulas implanted directly within the right corpus striatum of the control and treated rats. Cannulas were implanted on day 1, and samples were collected on days 3 and 4. Micro-dialysates (22.5 microliter, collected over 15 minutes) were assayed for dopamine (DA), 3,4-dihydroxyphenylacetic acid (DOPAC), homovanillic acid (HVA), 5-hydroxy-tryptamine (5-HT) and 5-hydroxyindoleacetic acid (5-HIAA). Real-time neurotransmitter level measurements were taken on samples drawn prior to and following depolarization of the neuron membrane via local application of […] potassium chloride (KCl) solution. Animals were then sacrificed, and striatum, hippocampus and temporal cortex were assayed for DA, DOPAC, HVA, 5HT, 5HIAA, DNA, protein and phosphatidyl choline (PC) content. DA and metabolites in dialysates and tissue samples were determined using an ESA Coulochem 11 5100A detector (E1=−175 mV; E2=+325 mV; Eguard=350 mV) with an ESA Microdialysis Cell (model 5014B, ESA, North Chelmsford, Mass.). The mobile phase (MD-TM, ESA) consisted of 75 mM NaH2PO4, 1.7 mM 1-octanesulfonic acid, 100 ?l/L Triethylamine, 25 ?M EDTA, 10% acetonitrile, pH 3.0. The flow rate was 0.4 mL/min. The column (ESA MD 150, 3×150 mm, 3 ?m, 120 Å) was kept in a 40° C. column oven. Samples were injected to HPLC by an Alltech 580 autosampler (Alltech, Deerfield, Ill.) and maintained to 4° C. with a cooling tray during analysis. Data were captured by Alltech AllChrom™ data system, and analyzed with AllChrom plus™ software. A timeline program, which could change the detection gain during sample separation and detection, was used to make it possible to get low DA and high metabolites concentration data in dialysate through one injection. Real-time neurotransmitter levels were assayed by measuring the faradaic current at the respective oxidation potentials with a carbon fiber electrode inserted through the cannula.
# striatum = test: Total tissue content of DA, 5-HT and metabolites in striatum after sacrifice; assay type: in vivo, rat; conditions: UMP-fed rats vs control
# Experimental: as §1, with “injection.” for “injection. Real-time neurotransmitter levels were assayed by measuring the faradaic current at the respective oxidation potentials with a carbon fiber electrode inserted through the cannula.”
# [2] = UMP-fed rat vs control, before stimulation
# [3] = UMP-fed rat vs control, during and after stimulation
# [4] = rats fed UMP 2.5% w/w in chow (500 mg/kg/day) for six weeks, depolarization by local 100 nm KCl, vs control rat
# [5] = striatum and striatal extracellular fluid (ECF)
smiles,measurement,setting,value
"O=c1ccn([C@@H]2O[C@H](COP(=O)(O)O)[C@@H](O)[C@H]2O)c(=O)[nH]1 [UMP, uridine 5′-monophosphate]",basal level of 5-HIAA,[1]; [2],lower basal levels
same,basal level of DOPAC,[1]; [2],lower basal levels
same,basal level of HVA,[1]; [2],lower basal levels
same,release of 5-HIAA on potassium stimulation,[1]; [3],"increased, although by a smaller margin than DA and 5-HT, after but not during stimulation"
same,release of DOPAC on potassium stimulation,[1]; [3],"increased, although by a smaller margin than DA and 5-HT, after but not during stimulation"
same,release of HVA on potassium stimulation,[1]; [3],"increased, although by a smaller margin than DA and 5-HT, after but not during stimulation"
same,release of 5-HT during and after depolarization,[1]; [4],enhanced
same,release of DA during and after depolarization,[1]; [4],enhanced
same,release of DA during and after depolarization,"[1]; rats fed UMP 2.5% w/w in chow (500 mg/kg/day) for six weeks, depolarization by local 100 nm KCl, vs control rat, listed as uridine monophosphate",significantly enhanced
same,total level of 5-HT in the striatum,striatum; striatal tissue,did not affect
same,total level of DA in the striatum,striatum; striatal tissue,did not affect
same,total striatal level of 5-HIAA,striatum; [5],slightly reduced
same,total striatal level of DOPAC,striatum; [5],slightly reduced
same,total striatal level of HVA,striatum; [5],slightly reduced
same,total striatal levels of DA metabolites,striatum; summary statement,decreased
